{
  "source": "patent US20220289751A1",
  "about": "“COMPOUND HAVING KDM5 INHIBITORY ACTIVITY AND PHARMACEUTICAL USE THEREOF” (ONO PHARMACEUTICAL CO., LTD., priority 2019, published 2022)",
  "target": "T1, KDM5A protein (Homo sapiens, UniProt P29375)",
  "T1 construct": "purchased BPS Bioscience 50110",
  "T1 sequence (P29375 whole entry)": "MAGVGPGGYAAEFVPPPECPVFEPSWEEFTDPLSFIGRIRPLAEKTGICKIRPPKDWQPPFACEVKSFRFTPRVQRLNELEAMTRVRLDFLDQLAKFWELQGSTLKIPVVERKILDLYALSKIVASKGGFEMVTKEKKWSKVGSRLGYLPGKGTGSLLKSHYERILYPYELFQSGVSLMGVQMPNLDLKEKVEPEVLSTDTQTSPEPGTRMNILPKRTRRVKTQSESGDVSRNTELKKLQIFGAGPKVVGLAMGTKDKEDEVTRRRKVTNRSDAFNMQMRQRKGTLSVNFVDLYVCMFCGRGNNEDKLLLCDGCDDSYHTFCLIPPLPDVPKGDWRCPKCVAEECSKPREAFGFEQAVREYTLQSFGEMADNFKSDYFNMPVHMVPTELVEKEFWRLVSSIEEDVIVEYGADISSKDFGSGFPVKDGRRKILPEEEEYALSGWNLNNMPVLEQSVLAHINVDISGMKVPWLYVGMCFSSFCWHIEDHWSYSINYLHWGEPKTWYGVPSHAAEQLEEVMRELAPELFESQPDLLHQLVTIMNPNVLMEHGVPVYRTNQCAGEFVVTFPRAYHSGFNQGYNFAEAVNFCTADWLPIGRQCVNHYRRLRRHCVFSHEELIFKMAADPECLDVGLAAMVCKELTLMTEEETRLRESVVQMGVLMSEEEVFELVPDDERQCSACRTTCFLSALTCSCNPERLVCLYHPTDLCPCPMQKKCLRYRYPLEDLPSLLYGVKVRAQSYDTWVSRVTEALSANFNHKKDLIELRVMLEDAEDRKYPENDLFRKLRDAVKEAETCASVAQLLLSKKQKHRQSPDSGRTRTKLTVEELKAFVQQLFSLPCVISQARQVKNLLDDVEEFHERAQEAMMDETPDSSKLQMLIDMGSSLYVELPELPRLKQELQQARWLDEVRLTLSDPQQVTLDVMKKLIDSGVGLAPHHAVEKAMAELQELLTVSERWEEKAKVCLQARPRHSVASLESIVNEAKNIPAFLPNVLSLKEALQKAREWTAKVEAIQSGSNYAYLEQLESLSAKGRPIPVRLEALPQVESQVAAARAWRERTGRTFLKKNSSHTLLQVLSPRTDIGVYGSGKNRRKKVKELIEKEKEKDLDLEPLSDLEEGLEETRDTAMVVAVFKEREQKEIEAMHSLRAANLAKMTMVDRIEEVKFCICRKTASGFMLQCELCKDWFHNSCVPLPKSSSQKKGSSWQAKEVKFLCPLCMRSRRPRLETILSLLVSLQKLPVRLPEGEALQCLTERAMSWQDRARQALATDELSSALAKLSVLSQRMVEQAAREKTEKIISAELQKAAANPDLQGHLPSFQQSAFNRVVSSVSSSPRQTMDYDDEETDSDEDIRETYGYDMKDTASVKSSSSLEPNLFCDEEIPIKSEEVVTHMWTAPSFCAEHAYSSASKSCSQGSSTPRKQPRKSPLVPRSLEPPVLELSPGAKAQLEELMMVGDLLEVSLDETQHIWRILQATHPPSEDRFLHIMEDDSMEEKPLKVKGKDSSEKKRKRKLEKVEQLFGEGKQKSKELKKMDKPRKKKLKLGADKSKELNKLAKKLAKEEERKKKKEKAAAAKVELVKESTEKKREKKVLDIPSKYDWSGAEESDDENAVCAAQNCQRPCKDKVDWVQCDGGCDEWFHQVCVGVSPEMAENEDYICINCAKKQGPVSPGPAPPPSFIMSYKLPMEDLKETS",
  "assay": "Biochemical KDM5A inhibition assay (HTRF)",
  "conditions": "20 nM enzyme concentration, read-out: IC50 value",
  "experimental": "Using 384-well white ProxiPlates (PerkinElmer), representative compounds were characterized for their inhibition of KDM5A using HTRF® technology (Cisbio Bioassays). Briefly, the test compounds, reference compounds, and DMSO control (typical compound concentration range 300 pM-10 μM, final assay concentration (FAC) of DMSO 0.5%) were added to 384-well plate by the Echo® acoustic dispensing platform (Labcyte). Three (3) μ1 of KDM5A protein (BPS Bioscience, Cat #50110)(10 or 20 nM FAC) in assay buffer (50 mM MES, 50 mM NaCl, 2 mM ascorbic acid, 0.01% v/v Tween 20, pH 6.5) was added to wells and plates were incubated for 10 minutes at room temperature. Then, 3 μl of biotin-labelled H3K4-me3 substrate (Anaspec Cat #AS-64357-1; 100 nM FAC), alpha-ketoglutaric acid ([…]) and Fe(II)SO4 (FAC 100 μM) in assay buffer was added and plates were incubated for 60 minutes at room temperature. The reaction was stopped with the addition of 6 μl of anti-H3-[…]-Eu(K) (Cisbio Bioassays Cat #61KA2KAE; 0.025 μg/ml FAC)+Streptavidin XL665 (Cisbio Bioassays Cat #610SAXLA; 0.5 μg/ml FAC) in HTRF detection buffer (Cisbio Bioassays Cat #62SDBRDD). The mixture was incubated for 90 minutes at room temperature before 340 nm excitation and measurement of dual emission at 620 nm and 665 nm. The raw data (a 665 nm and a 620 nm reading from each well) for individual assay plates were analyzed. The ratio of emissions was calculated using the following calculation: Ratio=(665 nm emission/620 nm emission)*10000. Using DMSO control (maximum response or 0% inhibition) and 1 μM reference control compound (minimum response or 100% inhibition), percentage inhibition values for each well were calculated using the median values of the minimum and maximum control wells and the following calculation: % Inhibition=(Well ratio-max control ratio)/(min control ratio-max control ratio)*100. Compound IC50 values were calculated from graphs of % inhibition plotted against compound concentration, using a four parameter curve fit.",
  "data": [
    {"smiles": "CC(C)n1c(N(C)CCC2CCCO2)nn2c(-c3cn[nH]c3)cnc2c1=O", "note": "(single isomer, unassigned) [EXAMPLE 62, 3-Isopropyl-2-(methyl(2-(tetrahydrofuran-2-yl)ethyl)amino)-7-(1H-pyrazol-4-yl)imidazo[2,1-f][1,2,4]triazin-4(3H)-one]", "values": [
      {"measurement": "IC50", "value": 1, "unit": "µM"}
    ]},
    {"smiles": "CC(C)n1c(-c2cnn(CC3CC3)c2)nn2c(-c3cnc[nH]3)cnc2c1=O", "note": "[EXAMPLE 19, 2-(1-(Cyclopropylmethyl)-1H-pyrazol-4-yl)-7-(1H-imidazol-5-yl)-3-isopropylimidazo[2,1-f][1,2,4]triazin-4(3H)-one]", "values": [
      {"measurement": "IC50", "value": 0.03, "unit": "µM"}
    ]},
    {"smiles": "CC(C)n1c(-c2cccs2)nn2c(-c3cn[nH]c3)cnc2c1=O", "note": "[EXAMPLE 27, 3-Isopropyl-7-(1H-pyrazol-4-yl)-2-(thiophen-2-yl)imidazo[2,1-f][1,2,4]triazin-4(3H)-one]", "values": [
      {"measurement": "IC50", "value": 0.05, "unit": "µM"}
    ]},
    {"smiles": "CCNC(=O)N1CC2(C1)CN(C(=O)c1cc(C(C)C)[nH]n1)C2", "note": "[EXAMPLE 41, N-Ethyl-6-(5-isopropyl-1H-pyrazole-3-carbonyl)-2,6-diazaspiro[3.3]heptane-2-carboxamide]", "values": [
      {"measurement": "IC50", "value": 0.03, "unit": "µM"}
    ]},
    {"smiles": "CC(=O)NCCn1cc(-c2nn3c(-c4cn[nH]c4)cnc3c(=O)n2C(C)C)cn1", "note": "[EXAMPLE 47, N-(2-(4-(3-isopropyl-4-oxo-7-(1H-pyrazol-4-yl)-3,4-dihydroimidazo[2,1-f][1,2,4]triazin-2-yl)-1H-pyrazol-1-yl)ethyl)acetamide]", "values": [
      {"measurement": "IC50", "value": 0.05, "unit": "µM"}
    ]},
    {"smiles": "Cc1ccc(-n2cc(-c3cnc4c(=O)n(C(C)C)c(C)nn34)cn2)nc1", "note": "[EXAMPLE 67, 3-Isopropyl-2-methyl-7-(1-(5-methylpyridin-2-yl)-1H-pyrazol-4-yl)imidazo[2,1-f][1,2,4]triazin-4(3H)-one]", "values": [
      {"measurement": "IC50", "value": 2.9, "unit": "µM"}
    ]},
    {"smiles": "CC(C)c1cc(C(=O)c2cnn3c(=O)c(C(C)C)c(-c4ccccc4)n(C)c23)n[nH]1", "note": "[EXAMPLE 68, 6-Isopropyl-3-(5-isopropyl-1H-pyrazole-3-carbonyl)-4-methyl-5-phenylpyrazolo[1,5-a]pyrimidin-7 (4H)-one]", "values": [
      {"measurement": "IC50", "value": 0.4, "unit": "µM"}
    ]},
    {"smiles": "CC(C)c1cc(C(=O)N2CC(NC(=O)C3CC3)C2)n[nH]1", "note": "[EXAMPLE 80, N-(1-(5-Isopropyl-1H-pyrazole-3-carbonyl)azetidin-3-yl)cyclopropanecarboxamide]", "values": [
      {"measurement": "IC50", "value": 0.2, "unit": "µM"}
    ]},
    {"smiles": "CC(C)n1cnc(C(=O)N2CC3(C2)CN(C(=O)C2CC2)C3)c1", "note": "[EXAMPLE 81, (6-(Cyclopropanecarbonyl)-2,6-diazaspiro[3.3]heptan-2-yl)(1-isopropyl-1H-imidazol-4-yl)methanone]", "values": [
      {"measurement": "IC50", "value": 0.1, "unit": "µM"}
    ]},
    {"smiles": "CC(C)c1cc(C(=O)N2CC3(C2)CN(C(=O)C2(C)CC2)C3)n[nH]1", "note": "[EXAMPLE 96, (5-Isopropyl-1H-pyrazol-3-yl)(6-(1-methylcyclopropane-1-carbonyl)-2,6-diazaspiro[3.3]heptan-2-yl)methanone]", "values": [
      {"measurement": "IC50", "value": 0.03, "unit": "µM"}
    ]},
    {"smiles": "CC(=O)NCCn1cc(-c2nn3c(-c4c[nH]cn4)cnc3c(=O)n2C(C)C)cn1", "note": "[EXAMPLE 121, N-(2-(4-(7-(1H-Imidazol-4-yl)-3-isopropyl-4-oxo-3,4-dihydroimidazo[2,1-f][1,2,4]triazin-2-yl)-1H-pyrazol-1-yl)ethyl)acetamide]", "values": [
      {"measurement": "IC50", "value": 0.09, "unit": "µM"}
    ]},
    {"smiles": "CC(C)c1cc(C(=O)N2CC3(C2)CN(C(=O)c2nn(C)cc2F)C3)n[nH]1", "note": "[EXAMPLE 126, [2-(4-Fluoro-1-methyl-pyrazole-3-carbonyl)-2,6-diazaspiro[3.3]heptan-6-yl]-(5-isopropyl-1H-pyrazol-3-yl)methanone]", "values": [
      {"measurement": "IC50", "value": 0.008, "unit": "µM"}
    ]}
  ]
}
